“Also recorded” adds a separate entry of the source.
How the values were obtained:
diabetic mice [1] = experiment: Corneal nerve regeneration (βIII-tubulin staining, confocal microscope); format: in vivo
Source text: Animals were STZ-induced type I diabetic mice (constructedas describedin the prior art: Lingling, Yang, Guohu, Di, Xia, & Qi, et al. (2014). Substance P promotes diabetic corneal epithelial wound healing through molecular mechanisms mediated via the neurokinin-1 receptor. Diabetes, 63(12), 4262-4274.) and their normal controls. Laboratory mice had no corneal defect, neovascularization, or conjunctival injury.
Cornea of diabetic mice and their control mice were subjected to βIII-tubulin staining (as described in the following reference: Wang X, Li W, Zhou Q, et al. MANF Promotes Diabetic Corneal Epithelial Wound Healing and Nerve Regeneration by Attenuating Hyperglycemia-Induced Endoplasmic Reticulum Stress. 2020.), and nerve regeneration was observed under a confocal microscope.
The cornea of diabetic mice and their control mice were stained with βIII-tubulin, and nerve regeneration was observed under a confocal microscope.

diabetic mice [2] = experiment: Corneal sensitivity after corneal epithelium scraping (Cochet-Bonnet aesthesiometer); format: in vivo
[3] = test system: Trigeminal ganglion neurons; experiment: Growth of trigeminal ganglion neurons cultured with TKE2 culture supernatants (βIII-Tubulin staining, Neuron J length); format: cell-based, mice; conditions: supernatant added to neurons for 24 h
Protocol: Trigeminal ganglion neurons isolated from normal mice were mixed with a mixture of 40 U/mL papain, 3 mg/mL collagenase, and 4.7 mg/mL dispase II, digested and subjected to gradient centrifugation with percoll (upper layer: 12.5% percoll; lower layer 28% percoll), and isolated to obtain neurons (as describedin the prior art: Malin, S. A., Davis, B. M. & Molliver, D. C. Production of dissociated sensory neuron cultures and considerations for their use in studying neuronal function and plasticity. Nat Protoc 2, 152-160 (2007).). The neurons obtained were cultured on a laminin-coated glass slide overnight. TKE2 culture supernatants under different conditions were added to the neurons and cultured for 24 h; after βIII-Tubulin staining, the length of neuron was analyzed and calculated by Neuron J (after the relative length was analyzed by the software, it was calculated with the control as 1.0).

diabetic mice [4] = experiment: Corneal epithelial repair after 2 mm corneal epithelium scraping (sodium fluorescein staining); format: in vivo
diabetic mice [5] = experiment: Expression of NGF and GDNF in corneal epithelium (mRNA detection and immunofluorescence staining); format: in vivo; conditions: diabetic mice dropped in eyes with β2-adrenergic receptor antagonist
Source text: mRNA was extracted from the corneal epithelia of the diabetic mice and the diabetic mice treated with β2-adrenergic receptor antagonist; meanwhile, expression levels of NGF and GDNF in epithelial cells were detected according to the example, and expression levels of NGF and GDNF in epithelia of the diabetic mice and the diabetic mice dropped in eyes with β2-adrenergic receptor antagonist were detected by immunofluorescence staining.

TKE2 cells = experiment: Expression of neurotrophic factors NGF and GDNF in TKE2 cells (qPCR and ELISA); format: cell-based, mouse; conditions: 24 h
Protocol: TKE2 cells cultured under different conditions were collected for mRNA extraction, and their culture supernatants were collected; after qPCR and ELISA, expression levels of neurotrophic factors NGF and GDNF were obtained, respectively. Herein, primers for the detection of expression of NGF and GDNF by qPCR were as follows: The reaction system was as follows: 2×SYBR: 5 μL; upstream primer: 0.3 μL; downstream primer: 0.3 μL; RNase-free water: 2.4 μL; cDNA: 2 μL; total: 10 μL; The reaction program was as follows: PCR initial denaturation: 95° C. for 2 min; two-step program: 40 cycles of 95° C. for 5 s and 60° C. for 10 s. The ELISA was conducted by ELISA Kit for mouse NGF (USCN Life Science Inc. Wuhan, China) and mouse GDNF(Abcam, ab171178, Shanghai, China).

## NCCc1cc(O)c(O)cc1O [6-OHDA, 6-hydroxydopamine]
Diabetic mice [1]; Example 8: 100 mg/kg intraperitoneally, four consecutive days, 100 mg/kg
  corneal nerve regeneration: promoting effect; also recorded: effectively promoted the corneal nerve regeneration

## Cc1ccc(OCC(O)C(C)NC(C)C)c2c1CCC2 (centres unmarked) [ICI 118,551]
Diabetic mice [2]; 10-100 μM eye drops, 5 μL/eye, 4 times/day, two consecutive days
  corneal sensitivity: significantly promote
Diabetic mice [2]; Example 8: 100 mg/kg intraperitoneally, four consecutive days, scraped at 7th day
  corneal sensitivity: recover the sensitivity
[3]; TKE2 cells treated with 10 μM NE + 50 μM antagonist for 24 h
  reversal of nerve growth inhibition caused by elevated norepinephrine: better reverse nerve growth inhibition
Diabetic mice [1]; diabetic mice treated with β2-adrenergic receptor antagonist eye drops
  corneal nerve regeneration: promoting effect; also recorded: effectively promote corneal nerve regeneration
Diabetic mice [4]; 10-100 μM eye drops, 5 μL/eye, 4 times/day, two consecutive days, 0, 24, 36, 48 h after modeling
  diabetic corneal epithelial repair: significantly promote the diabetic corneal epithelial repair
Diabetic mice [4]; Example 8: 100 mg/kg intraperitoneally, four consecutive days, scraped at 7th day, 0, 36, 48 h after modeling
  diabetic corneal epithelial repair: significantly promote the diabetic corneal epithelial repair
Diabetic mice [5]
  expression of NGF and GDNF in corneal epithelium: significantly upregulated the expression of NGF and GDNF
TKE2 cells; 10 μM NE + 50 μM antagonist
  reversal of downregulated expression of NGF and GDNF caused by NE: reverse the downregulated expression of NGF and GDNF

## NC[C@H](O)c1ccc(O)c(O)c1 [norepinephrine]
[3]; TKE2 cells treated with 10 μM NE for 24 h
  nerve growth (length of neuron): nerve growth inhibition
TKE2 cells; 10 μM NE
  expression of NGF and GDNF: downregulated expression of NGF and GDNF

From patent US20230181496A1, “USE OF NOREPINEPHRINE OR BETA-ADRENERGIC RECEPTOR INHIBITOR IN PREPARATION OF MEDICAMENT FOR NERVE INJURY REPAIR IN DIABETES” (Qingdao Eye Hospital of Shandong First Medical University …, priority 2021, published 2023)
